# Target: HCV NS5B polymerase (Hepatitis C virus genotype 1b, UniProt P26663)
# Assay: biochemical
# Settings: HCV polymerase inhibition, 50 nM enzyme, 2 h at room temperature, FlashPlate [α-33P]GTP incorporation
# Method: NS5B Polymerase Inhibition Assay (IC50)
# Compounds were tested for HCV polymerase inhibition. Assays were performed in a 96-well streptavidin-coated FlashPlate using 50 nM enzyme, 0.5 μCi of [α-^33P]GTP, 0.6 μM GTP, and 50 nM 5′biotinylated oligo (rG13)/poly rC in 20 mM Tris-HCl, pH 7.5, 5 mM MgCl2, 20 mM NaCl, 5 mM dithiothreitol, and 0.1 g/L BSA. The reaction was stopped by aspiration after 2 h at room temperature and the plate was washed several times. After washing, incorporated radioactivity was counted using a Microbeta scintillation counter.
# Chain of HCV NS5B polymerase (P26663 2420-3010): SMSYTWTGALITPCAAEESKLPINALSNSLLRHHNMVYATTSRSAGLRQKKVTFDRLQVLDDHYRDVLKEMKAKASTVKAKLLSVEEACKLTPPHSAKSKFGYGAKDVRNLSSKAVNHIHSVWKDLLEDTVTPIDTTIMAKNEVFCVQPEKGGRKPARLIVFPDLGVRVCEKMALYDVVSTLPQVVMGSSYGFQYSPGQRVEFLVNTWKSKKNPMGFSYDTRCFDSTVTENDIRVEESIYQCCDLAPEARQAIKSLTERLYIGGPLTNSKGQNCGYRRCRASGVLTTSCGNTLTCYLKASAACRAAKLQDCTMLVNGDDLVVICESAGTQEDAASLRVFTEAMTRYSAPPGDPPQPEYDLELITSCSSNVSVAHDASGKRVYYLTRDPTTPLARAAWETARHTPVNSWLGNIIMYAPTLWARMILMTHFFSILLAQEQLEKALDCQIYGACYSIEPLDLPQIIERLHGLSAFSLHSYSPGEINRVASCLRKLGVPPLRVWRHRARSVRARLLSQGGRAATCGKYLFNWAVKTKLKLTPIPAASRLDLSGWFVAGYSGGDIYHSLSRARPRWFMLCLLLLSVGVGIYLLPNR
row,Structure (SMILES),IC50 [nM]
1,"CC(C)CCn1nc(-c2cccs2)c(OCOC(=O)C(C)(C)C)c(C2=Nc3ccc(N(C)S(C)(=O)=O)cc3S(=O)(=O)N2)c1=O [2,2-Dimethyl-propionic acid 5-[7-(methanesulfonyl-methyl-amino)-1,1-dioxo-1,2-dihydro-1λ^6-benzo[1,2,4]thiadiazin-3-yl]-1-(3-methyl-butyl)-6-oxo-3-thiophen-2-yl-1,6-dihydro-pyridazin-4-yloxymethyl ester]",1000 to 10000
2,"CC(C)(C)CCn1nc(-c2cccs2)c(O)c(C2=NS(=O)(=O)c3cc(N(COC(=O)C(C)(C)C)S(C)(=O)=O)ccc3N2)c1=O [2,2-Dimethyl-propionic acid ({3-[2-(3,3-dimethyl-butyl)-5-hydroxy-3-oxo-6-thiophen-2-yl-2,3-dihydro-pyridazin-4-yl]-1,1-dioxo-1,2-dihydro-1λ^6-benzo[1,2,4]thiadiazin-7-yl}-methanesulfonyl-amino)-methylester]",100 to 1000
3,"CC(C)CCn1nc(-c2cccs2)c(O)c(C2=Nc3ccc(N(COC(=O)C(C)(C)C)S(C)(=O)=O)cc3S(=O)(=O)N2)c1=O [2,2-Dimethyl-propionic acid ({3-[5-hydroxy-2-(3-methyl-butyl)-3-oxo-6-thiophen-2-yl-2,3-dihydro-pyridazin-4-yl]-1,1-dioxo-1,2-dihydro-1λ^6-benzo[1,2,4]thiadiazin-7-yl}-methanesulfonyl-amino)-methylester]",100 to 1000
4,"CC(C)(C)CCn1nc(-c2cccs2)c(O)c(C2=Nc3ccc(NS(=O)(=O)CCN)cc3S(=O)(=O)N2)c1=O [2-Amino-ethanesulfonic acid {3-[2-(3,3-dimethyl-butyl)-5-hydroxy-3-oxo-6-thiophen-2-yl-2,3-dihydro-pyridazin-4-yl]-1,1-dioxo-1,2-dihydro-1λ^6-benzo[1,2,4]thiadiazin-7-yl}-amide]",< 100
5,"CCN(CC)CCS(=O)(=O)Nc1ccc2c(c1)S(=O)(=O)NC(c1c(O)c(-c3cccs3)nn(CCC(C)(C)C)c1=O)=N2 [2-Diethylamino-ethanesulfonicacid {3-[2-(3,3-dimethyl-butyl)-5-hydroxy-3-oxo-6-thiophen-2-yl-2,3-dihydro-pyridazin-4-yl]-1,1-dioxo-1,4-dihydro-1λ^6-benzo[1,2,4]thiadiazin-7-yl}-amide]",100 to 1000
6,"CC(C)CCn1nc(-c2cncs2)c(O)c(C2=Nc3ccc(NS(=O)(=O)C(C)(C)C)cc3S(=O)(=O)N2)c1=O [2-Methyl-propane-2-sulfonic acid{3-[5-hydroxy-2-(3-methyl-butyl)-3-oxo-6-thiazol-5-yl-2,3-dihydro-pyridazin-4-yl]-1,1-dioxo-1,2-dihydro-1λ^6-benzo[1,2,4]thiadiazin-7-yl}-amide]",< 100
7,"CC(C)CCn1nc(-c2cccs2)c(O)c(C2=Nc3ccc(NCCS(N)(=O)=O)cc3S(=O)(=O)N2)c1=O [2-{3-[5-Hydroxy-2-(3-methyl-butyl)-3-oxo-6-thiophen-2-yl-2,3-dihydro-pyridazin-4-yl]-1,1-dioxo-1,2-dihydro-1λ^6-benzo[1,2,4]thiadiazin-7-ylamino}-ethanesulfonic acid amide]",100 to 1000
8,"CC(C)CCn1nc(-c2cccs2)c(O)c(C2=NS(=O)(=O)c3cc(N4CCCS4(=O)=O)ccc3N2)c1=O [4-[7-(1,1-Dioxo-1l6-isothiazolidin-2-yl)-1,1-dioxo-1,2-dihydro-1λ^6-benzo[1,2,4]thiadiazin-3-yl]-5-hydroxy-2-(3-methyl-butyl)-6-thiophen-2-yl-2H-pyridazin-3-one]",100 to 1000
9,"CC(C)CCn1nc(-c2cccs2)c(O)c(C2=Nc3ccc(C4CCCS4(=O)=O)cc3S(=O)(=O)N2)c1=O (stereo not drawn) [4-[7-(1,1-Dioxo-tetrahydro-1l6-thiophen-2-yl)-1,1-dioxo-1,2-dihydro-1λ^6-benzo[1,2,4]thiadiazin-3-yl]-5-hydroxy-2-(3-methyl-butyl)-6-thiophen-2-yl-2H-pyridazin-3-one]",100 to 1000
10,"CC(C)CCn1nc(-c2cccs2)c(O)c(C2=NS(=O)(=O)c3cc(CCS(C)(=O)=O)ccc3N2)c1=O [5-Hydroxy-4-[7-(2-methanesulfonyl-ethyl)-1,1-dioxo-1,2-dihydro-1λ^6-benzo[1,2,4]thiadiazin-3-yl]-2-(3-methyl-butyl)-6-thiophen-2-yl-2H-pyridazin-3-one]",100 to 1000
11,"CC(C)CCn1nc(-c2cccs2)c(O)c(C2=Nc3ccc(/C=C/S(C)(=O)=O)cc3S(=O)(=O)N2)c1=O [5-Hydroxy-4-[7-(2-methanesulfonyl-vinyl)-1,1-dioxo-1,2-dihydro-1λ^6-benzo[1,2,4]thiadiazin-3-yl]-2-(3-methyl-butyl)-6-thiophen-2-yl-2H-pyridazin-3-one]",100 to 1000
12,"O=c1c(C2=Nc3ccc(NS(=O)(=O)C4CC4)cc3S(=O)(=O)N2)c(O)c(-c2cccs2)nn1CCC1CC1 [Cyclopropanesulfonic acid {3-[2-(2-cyclopropyl-ethyl)-5-hydroxy-3-oxo-6-thiophen-2-yl-2,3-dihydro-pyridazin-4-yl]-1,1-dioxo-1,2-dihydro-1λ^6-benzo[1,2,4]thiadiazin-7-yl}-amide]",< 100
13,"O=c1c(C2=Nc3ccc(NS(=O)(=O)C4CC4)cc3S(=O)(=O)N2)c(O)c(-c2cccs2)nn1Cc1ccc(F)c(Cl)c1 [Cyclopropanesulfonic acid {3-[2-(3-chloro-4-fluoro-benzyl)-5-hydroxy-3-oxo-6-thiophen-2-yl-2,3-dihydro-pyridazin-4-yl]-1,1-dioxo-1,2-dihydro-1λ^6-benzo[1,2,4]thiadiazin-7-yl}-amide]",100 to 1000
14,"CC(C)CCn1nc(-c2cncs2)c(O)c(C2=Nc3ccc(NS(=O)(=O)C4CC4)cc3S(=O)(=O)N2)c1=O [Cyclopropanesulfonic acid {3-[5-hydroxy-2-(3-methyl-butyl)-3-oxo-6-thiazol-5-yl-2,3-dihydro-pyridazin-4-yl]-1,1-dioxo-1,2-dihydro-1λ^6-benzo[1,2,4]thiadiazin-7-yl}-amide]",< 100
15,"CC(C)CCn1nc(C(C)(C)C)c(O)c(C2=Nc3ccc(NS(=O)(=O)C4CC4)cc3S(=O)(=O)N2)c1=O [Cyclopropanesulfonic acid {3-[6-tert-butyl-5-hydroxy-2-(3-methyl-butyl)-3-oxo-2,3-dihydro-pyridazin-4-yl]-1,1-dioxo-1,2-dihydro-1λ^6-benzo[1,2,4]thiadiazin-7-yl}-amide]",1000 to 10000
16,"CCS(=O)(=O)Nc1ccc2c(c1)S(=O)(=O)NC(c1c(O)c(-c3cncs3)nn(CCC(C)C)c1=O)=N2 [Ethanesulfonic acid {3-[5-hydroxy-2-(3-methyl-butyl)-3-oxo-6-thiazol-5-yl-2,3-dihydro-pyridazin-4-yl]-1,1-dioxo-1,2-dihydro-1λ^6-benzo[1,2,4]thiadiazin-7-yl}-amide]",< 100
17,"CCS(=O)(=O)Nc1ccc2c(c1)S(=O)(=O)NC(c1c(O)c(-c3cccs3)nn(CCC(C)C)c1=O)=N2 [Ethanesulfonic acid {3-[5-hydroxy-2-(3-methyl-butyl)-3-oxo-6-thiophen-2-yl-2,3-dihydro-pyridazin-4-yl]-1,1-dioxo-1,2-dihydro-1λ^6-benzo[1,2,4]thiadiazin-7-yl}-amide]",< 100
18,"C=CS(=O)(=O)N(C)c1ccc2c(c1)S(=O)(=O)NC(c1c(O)c(-c3cccs3)nn(CCC(C)(C)C)c1=O)=N2 [Ethenesulfonic acid {3-[2-(3,3-dimethyl-butyl)-5-hydroxy-3-oxo-6-thiophen-2-yl-2,3-dihydro-pyridazin-4-yl]-1,1-dioxo-1,2-dihydro-1λ^6-benzo[1,2,4]thiadiazin-7-yl}-methyl-amide]",1000 to 10000

# Reference: US20080275032A1, “Pyridazinone compounds” (priority 2006, published 2008)
